# According to patent publication US7173004B2, “Macrocyclic isoquinoline peptide inhibitors of hepatitis C virus” (Bristol-Myers Squibb Company, priority 2003, dated 2007):
# pEC50: −log10 of the molar value.
# System: HCV replicon (HCV 1b-377-neo replicon cells, Huh7)
# Experiment: HCV replicon cell-based FRET assay
# Details: Hepatitis C virus, Huh-7
# Procedure: HCV Replion assays were utilized in the present invention, and were prepared, conducted and validated as follows:
# An HCV replicon whole cell system was established as described by Lohmann V, Korner F, Koch J, Herian U, Theilmann L, Bartenschlager R., Science 285(5424): 110–3 (1999). This system enabled us to evaluate the effects of our HCV Protease compounds on HCV RNA replication. Briefly, using the HCV strain 1B sequence described in the Lohmann paper (Assession number: AJ238799), an HCV cDNA was synthesized by Operon Technologies, Inc. (Alameda, Calif.), and the full-length replicon was then assembled in plasmid pGem9zf(+) (Promega, Madison, Wis.) using standard molecular biology techniques. The replicon consists of (i) the HCV 5′ UTR fused to the first 12 amino acids of the capsid protein, (ii) the neomycin phosphotransferase gene (neo), (iii) the IRES from encephalomyocarditis virus (EMCV), and (iv) HCV NS3 to NS5B genes and the HCV 3′ UTR. Plasmid DNAs were linearized with ScaI and RNA transcripts were synthesized in vitro using the T7 MegaScript transcription kit (Ambion, Austin, Tex.) according to manufacturer's directions. To generate cell lines, 4×10^6 Huh-7 cells (kindly provided by R. Bartenschlager and available from Health Science Research Resources Bank, Japan Health Sciences Foundation) were electroporated (GenePulser System, Bio-Rad) with 10 microgram(“μg”) of RNA transcript and plated into 100-mm dishes. After 24 h, selective media containing 1.0 milligrams/milliliter (“mg/ml”) G418 was added and media was changed every 3 to 5 days. Approximately 4 weeks after electroporation, small colonies were visible which were isolated and expanded for further analysis. These cell lines were maintained at 37° C., 5% CO2, 100% relative humidity in DMEM (Cat# 11965-084) Gibco-BRL, Rockville, Md., with 10% heat inactivated calf serum (Sigma), 10 ml of 100× penicillin/streptomycin (Cat# 15140-122) Gibco-BRL, Rockville, Md., Geneticin (Cat# 10131-027) Gibco-BRL, Rockville, Md. at 1 mg/ml. One of the cell lines (deposited as ATCC Accession No. PTA-4583 in the American Type Culture Collection) which had approximately 3,000 copies of HCV replicon RNA/cell was used for development of the assay (HCV 1b-377-neo replicon cells).
# Huh7 cells, constitutively expressing the HCV replicon, were grown in Dulbecco's Modified Eagle Media (DMEM) containing 10% Fetal calf serum (FCS) and 1 mg/ml G418 (Gibco-BRL). Cells were seeded the night before (1.5×10^4 cells/well) in 96-well tissue-culture sterile plates. Compound and no compound controls were prepared in DMEM containing 4% FCS, 1:100 Penicillin/Streptomysin, 1:100 L-glutamine and 5% DMSO in the dilution plate (0.5% DMSO final concentration in the assay). Compound/DMSO mixes were added to the cells and incubated for 4 days at 37° C. After 4 days, cells were first assessed for cytotoxicity using alamar Blue (Trek Diagnotstic Systems) for a CC50 reading. The toxicity of compound (CC50) was determined by adding 1/10th volume of alamar Blue to the media incubating the cells. After 4 hr, the fluorescence signal from each well was read, with an excitation wavelength at 530 nm and an emission wavelength of 580 nm, using the Cytofluor Series 4000 (Perspective Biosystems). Plates were then rinsed thoroughly with Phosphate-Buffered Saline (PBS) (3 times 150 μl). The cells were lysed with 25 μl of a lysis assay reagent containing an HCV protease substrate (5× cell Luciferase cell culture lysis reagent (Promega #E153A) diluted to 1× with distilled water, NaCl added to 150 mM final, the FRET peptide diluted to 10 μM final from a 2 mM stock in 100% DMSO). The HCV protease substrate (FRET peptide; AnaSpec, Inc. cat #22991, described by Taliani et al. in Anal. Biochem. 240(2):60–67 (1996)) contains a fluorescence donor, EDANS, near one end of the peptide and an acceptor, DABCYL, near the other end. […]
row,SMILES,pEC50
1,"CC(C)OC(=O)N[C@H]1CCCCC/C=C\[C@@H]2C[C@@]2(C(=O)NS(=O)(=O)C2CC2)NC(=O)[C@@H]2C[C@@H](Oc3nccc4ccccc34)CN2C1=O [Compound 16, [4-Cyclopropanesulfonylaminocarbonyl-18-(isoquinolin-1-yloxy)-2,15-dioxo-3,16-diaza-tricyclo[14.3.0.0^4,6]nonadec-7-en-14-yl]-carbamic acid isopropyl ester]",> 7.30
2,CC(C)(OC(=O)NC1CCCCCC=CC2CC2(C(=O)NS(=O)(=O)C2CC2)NC(=O)C2CC(Oc3nccc4ccccc34)CN2C1=O)C(F)(F)F (stereo not drawn) [Compound 51],> 7.30
3,COc1ccc2c(OC3CC4C(=O)NC5(C(=O)NS(=O)(=O)C6CC6)CC5C=CCCCOC(C)C(NC(=O)OC(C)C)C(=O)N4C3)nccc2c1 (stereo not drawn) [Compound 64],6.30 to 7.30
4,O=C(CC1CC1)NC1CCCCCC=CC2CC2(C(=O)NS(=O)(=O)C2CC2)NC(=O)C2CC(Oc3nccc4ccccc34)CN2C1=O (stereo not drawn) [Compound 22],> 7.30
5,CCC1(S(=O)(=O)NC(=O)C23CC2C=CCCCOC(C)C(NC(=O)OCC(C)(C)C)C(=O)N2CC(Oc4nccc5cc(OC)ccc45)CC2C(=O)N3)CC1 (stereo not drawn) [Compound 71],6.30 to 7.30
6,COc1ccc2c(OC3CC4C(=O)NC5(C(=O)NS(=O)(=O)C6(C)CC6)CC5C=CCCCS(=O)(=O)CC(NC(=O)OC(C)(C)C)C(=O)N4C3)nccc2c1 (stereo not drawn) [Compound 49],5.30 to 6.30
7,COc1ccc2c(OC3CC4C(=O)NC5(C(=O)NS(=O)(=O)C6(C)CC6)CC5C=CCOCCCC(NC(=O)OC(C)C)C(=O)N4C3)nccc2c1 (stereo not drawn) [Compound 35],> 7.30
8,"COc1ccc2c(O[C@@H]3C[C@H]4C(=O)N[C@]5(C(=O)O)C[C@H]5/C=C\CCCOC[C@H](NC(=O)OC(C)(C)C)C(=O)N4C3)nccc2c1 [Compound 84, (1S,4R,6S,14S,18R)-7-cis-14-tert-Butoxycarbonylamino-18-(6-methoxyisoquinolin-1-yloxy)-2,15-dioxo-12-oxa-3,16-diazatricyclo[14.3.0.0^4,6]-nonadec-7-ene-4-carboxylic acid]",5.30 to 6.30
9,"COc1ccc2c(OC3CC4C(=O)NC5(C(=O)O)CC5C=CCOCCCC(NC(=O)OC(C)(C)C)C(=O)N4C3)nccc2c1 (stereo not drawn) [Compound 27, 14-tert-Butoxycarbonylamino-18-(6-methoxy-isoquinolin-1-yloxy)-2,15-dioxo-10-oxa-3,16-diaza-tricyclo[14.3.0.0^4,6]nonadec-7-ene-4-carboxylic acid]",5.30 to 6.30
10,"COC(=O)N[C@H]1CCCCC/C=C\[C@@H]2C[C@@]2(C(=O)NS(=O)(=O)C2CC2)NC(=O)[C@@H]2C[C@@H](Oc3nccc4ccccc34)CN2C1=O [Compound 12, [4-Cyclopropanesulfonylaminocarbonyl-18-(isoquinolin-1-yloxy)-2,15-dioxo-3,16-diaza-tricyclo[14.3.0.0^4,6]nonadec-7-en-14-yl]-carbamic acid methyl ester]",> 7.30
11,CCC1(S(=O)(=O)NC(=O)C23CC2C=CCOCCCC(NC(=O)OC(C)(C)C)C(=O)N2CC(Oc4nccc5cc(OC)ccc45)CC2C(=O)N3)CC1 (stereo not drawn) [Compound 30],> 7.30
12,CCC1(S(=O)(=O)NC(=O)C23CC2C=CCCC[S+]([O-])CC(NC(=O)OC(C)(C)C)C(=O)N2CC(Oc4nccc5cc(OC)ccc45)CC2C(=O)N3)CC1 (stereo not drawn) [Compound 47],> 7.30
13,COCC(=O)NC1CCCCCC=CC2CC2(C(=O)NS(=O)(=O)C2CC2)NC(=O)C2CC(Oc3nccc4ccccc34)CN2C1=O (stereo not drawn) [Compound 24],6.30 to 7.30
14,O=C(NC1CCCCCC=CC2CC2(C(=O)NS(=O)(=O)C2CC2)NC(=O)C2CC(Oc3nccc4ccccc34)CN2C1=O)OC1CCCC1 (stereo not drawn) [Compound 20],> 7.30
15,"CC(C)(C)COC(=O)N[C@H]1CCCCC/C=C\[C@@H]2C[C@@]2(C(=O)NS(=O)(=O)C2CC2)NC(=O)[C@@H]2C[C@@H](Oc3nccc4ccccc34)CN2C1=O [Compound 13, [4-Cyclopropanesulfonylaminocarbonyl-18-(isoquinolin-1-yloxy)-2,15-dioxo-3,16-diaza-tricyclo[14.3.0.0^4,6]nonadec-7-en-14-yl]-carbamic acid 2,2-dimethyl-propyl ester]",> 7.30
